Results from patent US20240261292A1, “COMBINATION THERAPIES” (Janssen Pharmaceutica NV, priority 2021, published 2024).
Where a name gives a salt, the structure may show the parent alone.

Columns and labels:
[1] = test system: iCell Cardiomyocytes2 (hSC-CMs); test: Ca2+-fluorescence assay in human pluripotent stem cell-derived cardiomyocytes (CTCM human); type: cell-based; design: key to Hazard Scoring Color @ 0.1 μM / Hazard Scoring Color @ 0.2 μM / Hazard Scoring Color @ 0.5 μM / Hazard Scoring Color @ 1 μM / Hazard Scoring Color @ 2.5 μM / Hazard Scoring Color @ 5 μM / Hazard Scoring Color @ 0.3 μM / Hazard Scoring Color @ 3 μM / Hazard Scoring Color @ 10 μM / Hazard Scoring Color @ 30 μM: Green: No concern; Yellow: Low concern; Red: High concern; Black: Very high concern due to arrhythmic events; conditions: 30 min
Protocol: 7) Cardio-Electrophysiological Effects of the Testing Compounds in Synchronously Beating Human Pluripotent Stem Cell-Derived Cardiomyocytes (hSC-CMs) Using a Ca^2+-Fluorescence Assay (CTCM Human)
Compounds were tested in the 96-well plates.
Compounds were tested at 0.1 μM, 0.2 μM, 0.5 μM, 1 μM, 2.5 μM and 5 μM (n=4 per dose) on Cor.4U®-Cardiomyocytes or on iCell® Cardionyocytes2.
Alternatively, compounds were tested at 0.1 μM, 0.3 μM; 1 μM, 3 μM, 10 μM and 30 μM (n=4 per dose) mostly on iCell® Cardiomyocytes2.
Vehicle control: Dimethylsulfoxide (DMSO). The solutions of the compound in DMSO or its solvent (final concentration of 0.1% DMSO; n=8).
Tested compounds were dissolved in DMSO at 1000-fold the intended concentrations. A compound “mother-plate” was made, containing the test compounds and positive and negative controls at 1000-fold the final concentrations. At the experiment day, these stock solutions were diluted with Tyrode (Sigma), supplemented with 10 mM HEPES (Gibco), to 2-fold the intended concentration (in round bottom compound plates). Final DMSO concentration in test solutions and vehicle control was 0.1%.
hSC-CMs (Cor.4U® Cardiomyocytes) were obtained from CDI (Ncardia, Germany). Cells are pre-plated and seeded in fibronectin-coated 96-well plates at a density suited to form a monolayer and maintained in culture in a stage incubator (37° C., 5% CO2), according to the instructions of the cell provider.
Second line hSC derived cardiomyocyte called iCell® Cardiomyocytes2 were purchased from FUJIFILM Cellular Dynamics (USA). The experiments with test drugs are carried out 5 to 7 days after plating the cells onto the plate to have a living, beating monolayer of hiPSC-derived cardiomyocytes. The beating monolayer in 96-well-plates are normally taken from 2 Vials of frozen iCell® Cardiomyocytes2 (≈5 million cells/vial), which will be plated onto three 96-well plates (≈50K/well).
At least one hour before the start of the experiments the normal cell medium was replaced with Tyrode solution with Calcium dye (see below).
Cal 520 dye (AAT Bioquest) was dissolved in 11 ml of Tyrode supplemented with 10 mM HEPES and warmed up to 37 C before adding to the cells.
35 μl cell culture medium was removed from each well and replaced with 35 μl of pre-warmed Cal 520 dye solution and cell plate was incubated for 45 min at 37° C./5% CO2. Cells were incubated for 5 min at 37° C.
Spontaneous electrical activity is recorded, using Cal520™ (AAT Bioquest) calcium fluorescence-dye signalling. This dye integrates the total intracellular calcium activity over the whole well. A bottle of Ca1520 dye (50 μg, MW: 1103/mol) is dissolved with 50 μl DMSO as a stock solution of 0.9 mM. 50 μL of the stock solution of the dye was added to 10 ml Tryodes solution to have dye concentration of 4.5 μM. Subsequently, 35 μl of this dye solution was added into each well, to have a final dye concentration of 1.58 μM. The current dye protocol on this CTCM human assay was established recently (Ivan Kopljar et al, Journal of Pharmacological and toxicological methods 2018. 91: 80-86; Lu et al., Tox Sci 2019. 170 (2): 345-356).
Fluorescent signals (Ca^2+ transient morphology) were measured using the Functional Drug Screen System (FDSS/μCell; Hamamatsu, Japan) and the recordings were subsequently analyzed off-line, using appropriate software e.g., Notocord.
The cell plate was loaded into the FDSS/μCell for a test run: Ca^2+ transients were measured for 4 minutes to check for synchronous beating of the cardiomyocytes in each well. All 96 wells were measured simultaneously (sampling interval: 0.06 s, short exposure time: 10 ms; excitation wavelength 480 nm; emission wavelength 540 nm; FDSS/μCell warmed to 37° C.).
During the compound addition step, 100 μl of the respective double-concentrated test solutions was pipetted into each well simultaneously.
Data were analyzed off-line using appropriate software e.g., Notocord-Hem (version 4.3). […]

[2] = Mouse PK (in vivo T1/2 and oral bioavailability); conditions: fasted male CD-1 mice, single IV 0.5 or 1.0 mg/kg; formulating agent: A HP-β-CD, A3 Pyrogen free water
Protocol: 3) Mouse PK (In Vivo T1/2 and Oral Bioavailability)
In vivo pharmacokinetics (PK) were assessed in fasted male CD-1 mice (age 6-8 weeks) following a single intravenous (IV, 0.5 or 1.0 mg/kg administered at 2.5 ml/kg) or oral (PO, 5 mg/kg administered at 10 ml solution/kg) dose of test article formulated in a 20% (w:vol) HP-β-CD solution or in Pyrogen free water.
Plasma and/or whole blood samples were collected from the dorsal metatarsal vein at desired timepoints via serial capillary microsampling (approx. 0.03 mL) using EDTA as an anticoagulant. Concentrations of compound in the plasma and blood samples were analyzed using a qualified LC-MS/MS method. In silico analysis of main pharmacokinetic parameters was performed using WinNonlin (Phoenix™, version 6.1) or similar software.)

[3] = iCell Cardiomyocytes2 (Table 12)
[4] = iCell Cardiomyocytes2 (Table 11)

| SMILES | Hazard Scoring Color @ 0.1 μM [1, 3] | Hazard Scoring Color @ 0.3 μM ([1]; 0.3 μM, iCell Cardiomyocytes2 (Table 12)) | Hazard Scoring Color @ 1 μM [1, 3] | Hazard Scoring Color @ 3 μM ([1]; 3 μM, iCell Cardiomyocytes2 (Table 12)) | Hazard Scoring Color @ 10 μM ([1]; 10 μM, iCell Cardiomyocytes2 (Table 12)) | Hazard Scoring Color @ 30 μM ([1]; 30 μM, iCell Cardiomyocytes2 (Table 12)) | In vivo T1/2 (IV) [2] | Hazard Scoring Color @ 0.1 μM [1, 4] | Hazard Scoring Color @ 0.2 μM ([1]; 0.2 μM, iCell Cardiomyocytes2 (Table 11)) | Hazard Scoring Color @ 0.5 μM ([1]; 0.5 μM, iCell Cardiomyocytes2 (Table 11)) | Hazard Scoring Color @ 1 μM [1, 4] | Hazard Scoring Color @ 2.5 μM ([1]; 2.5 μM, iCell Cardiomyocytes2 (Table 11)) | Hazard Scoring Color @ 5 μM ([1]; 5 μM, iCell Cardiomyocytes2 (Table 11)) |
| --- | --- | --- | --- | --- | --- | --- | --- | --- | --- | --- | --- | --- | --- |
| CCN(C(=O)c1cc(F)ccc1Oc1nncnc1N1CCC2(C1)CN([C@H](CCCNCCOC)C(C)C)C2)C(C)C [Compound 11, (R)-N-ethyl-5-fluoro-N-isopropyl-2-((5-(2-(6-((2-methoxyethyl)amino)-2-methylhexan-3-yl)-2,6-diazaspiro[3.4]octan-6-yl)-1,2,4-triazin-6-yl)oxy)benzamide] | Green | Green | Green | Green | Green | Green |  |  |  |  |  |  |  |
| CCN(C(=O)c1cc(F)ccc1Oc1nncnc1N1CCC2(C1)CN([C@H](CCCN(C)CCOC)C(C)C)C2)C(C)C [Compound A3, (R)-N-ethyl-5-fluoro-N-isopropyl-2-((5-(2-(6-((2-methoxyethyl) (methyl)amino)-2-methylhexan-3-yl)-2,6-diazaspiro[3.4]octan-6-yl)-1,2,4-triazin-6-yl)oxy) benzamide oxalate] |  |  |  |  |  |  | 9.0 h | Green | Green | Green | Green | Green | Green |
